Assay results from US6740038B2, “Systems and methods for assessing vascular effects of a treatment” (New Health Sciences, Inc., priority 2000, dated 2004).

Test system: cerebral vessels
Conditions: person after first stroke, Plavix +/- calcium channel blocker
Experimental: A person with a history of hypertension experiences a first stroke in the left middle cerebral artery resulting in deficits in the right hand, leg, and some deficits in motor speech. These are the symptoms upon presentation in the neurological clinic. Transcranial Doppler analysis of all cerebral vessels is performed in addition to analyzing the common carotid artery and the internal carotid artery.
The physician considers prescription of Plavix together with a calcium channel blocker. Transcranial Doppler analysis was performed at monthly intervals. […] The physician subsequently administers a higher dose. Again, transcranial Doppler analysis is performed on all cerebral vessels.
The patient is then monitored on a monthly basis after the initial prescription of Plavix in order to determine whether vascular changes are occurring which necessitate alteration in the therapy.

COC(=O)[C@H](c1ccccc1Cl)N1CCc2sccc2C1 [Plavix]
auto-regulation curve (higher dose): left-shifts toward normal | pulsatility index (higher dose): decreases | vascular dynamics of the vessel studied (higher dose): marked changes | changes in the individual cerebral vessels (initial dose, transcranial Doppler at monthly intervals): no effect
